Legend:
human DPP1 enzyme = human DPP1 enzyme (Homo sapiens (Human), UniProt P53634); test: Human DPP1 enzyme single-point percent inhibition testing (HL-60 lysate, H-Gly-Arg-AMC substrate); format: biochemical; settings: read-out: human DPP1 enzyme % inhibition @ 10 nM, 10 nM compound, 400 μM H-Gly-Arg-AMC, 10 min pre-incubation at 37° C.
Method: A crude lysate of HL-60 cells (ATCC; Manassas, VA) was used as a source of human DPP1 enzyme in the assay. Lysate was prepared in 1% Triton X-100 in PBS at a concentration of 20,000 live cells per […] of lysis buffer and was centrifuged at 16,000 rcf for 10 minutes at 4° C., after which supernatant was collected and flash-frozen in liquid nitrogen. Test articles were applied to human DPP1 enzyme in Assay Buffer (25 mM MES pH 6.0, 50 mM NaCl, 5 mM DTT) in a total reaction volume of 125 μL. 25 μL of compound diluted to 50 nM in Assay Buffer plus 5% DMSO was first added to 50 μL of HL-60 lysate diluted to contain a DPP1 enzyme concentration of roughly 1 ng/μL and allowed to pre-incubate for 10 minutes at 37° C. after which 50 μL of 1000 μM H-Gly-Arg-AMC substrate (Bachem; St. Torrance, CA) was added, giving final compound concentration of 10 nM, a final substrate concentration of 400 μM and a final DMSO concentration of 1%. Substrate cleavage was measured for 90 minutes at 37° C., with fluorescence at Excitation/Emission 350/450 nm measured every 5 minutes. DPP1 concentration was interpolated based on its activity relative to a standard curve of activated human recombinant DPP1 enzyme. Percent inhibition at 10 nM was calculated for each test article based on remaining DPP1 activity compared to enzyme activity in wells that received only vehicle control.

DPP1 in HL-60 cells = DPP1 in HL-60 cells (Homo sapiens (Human), UniProt P53634); test: DPP1 cell single-point percent inhibition testing (HL-60 cells, H-Gly-Phe-AFC substrate); format: cell-based; settings: read-out: DPP1 cell % inhibition @ 5 nM, 5 nM compound, 100 μM H-Gly-Phe-AFC, 60 min pre-incubation at 37° C.
Method: HL-60 cells (ATCC; Manassas, VA) were maintained in RPMI-1640 supplemented with 20% heat-inactivated FBS and 1× Antibiotic Antimycotic (Cytiva; Marlborough, MA). Media was changed every three to four days and cells were not allowed to exceed 1×10^6 cells per mL. Prior to assay, cells were collected by centrifugation at 500 rcf for 3 minutes, resuspended in RPMI (with no additional supplements) and counted. Cells were diluted in RPMI to a concentration of 5×10^5 live cells per mL and transferred to black 96-well plates for assay, 60 μL per well. Test articles were diluted to 25 nM in RPMI plus 0.5% DMSO, and 20 μL was added to each assay well. Compound was allowed to pre-incubate with cells with gentle shaking at 100 rpm for 60 minutes at 37° C. in a cell culture incubator maintained at 5% CO2, after which 20 μL of 500 μM H-Gly-Phe-AFC cell-permeable substrate (MP Biomedicals; Solon, OH) in RPMI was added to each well, giving final compound concentration of 5 nM, a final substrate concentration of 100 μM and a final DMSO concentration of 0.1%. Plates were returned to the incubator with shaking at 100 rpm for 30 minutes, after which fluorescence was measured at Excitation/Emission 400/505 nm. Percent Inhibition was calculated from RFU values by first subtracting background values (wells in which RPMI was substituted for cells) from each well, and then subtracting background-subtracted RFU derived from wells that received a final concentration of 10 μM brensocatib. This value represents the non-specific substrate cleavage from the HL-60 cells, and the remaining RFU should theoretically be solely the contribution of DPP1 enzyme activity. The final percent inhibition value was calculated for each test article based on remaining RFU compared to RFU from wells that received only vehicle control.

human DPP1 enzyme, sequence (P53634 25-134): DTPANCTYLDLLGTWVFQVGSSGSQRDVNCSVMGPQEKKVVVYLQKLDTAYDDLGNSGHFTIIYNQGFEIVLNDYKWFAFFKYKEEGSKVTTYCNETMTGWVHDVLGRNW
human DPP1 enzyme, sequence (P53634 231-394): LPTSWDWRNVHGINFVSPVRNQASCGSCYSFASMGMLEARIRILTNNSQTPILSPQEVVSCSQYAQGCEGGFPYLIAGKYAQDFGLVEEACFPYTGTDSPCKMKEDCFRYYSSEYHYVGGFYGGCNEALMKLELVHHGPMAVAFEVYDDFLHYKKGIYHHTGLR
human DPP1 enzyme, sequence (P53634 395-463): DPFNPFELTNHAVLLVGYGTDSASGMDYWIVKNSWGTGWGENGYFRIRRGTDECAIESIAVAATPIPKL
DPP1 in HL-60 cells, sequence (P53634 25-134): as the sequence (P53634 25-134) above
DPP1 in HL-60 cells, sequence (P53634 231-394): as the sequence (P53634 231-394) above
DPP1 in HL-60 cells, sequence (P53634 395-463): as the sequence (P53634 395-463) above

Row | Structure (SMILES) | inhibition at 0.01 µM (human DPP1 enzyme) [%] | inhibition at 0.005 µM (DPP1 in HL-60 cells) [%]
1 | CN(C)C[C@H](O)C(=O)N[C@H](C#N)Cc1ccc(-c2cnc3c(n2)CCCC3)cc1F [Compound 376] | ≤ 40 | ≤ 76.5
2 | CN(C)CCn1c(=O)oc2ccc(-c3ccc(C[C@@H](C#N)NC(=O)[C@@](C)(O)CN(C)C)c(F)c3)cc21 [Compound 399] | ≥ 66.7 | ≥ 93.9
3 | CN(C)C[C@H](O)C(=O)N[C@H](C#N)Cc1cc2c(cc1F)-c1ccc(F)cc1CO2 [Compound 378] | ≤ 40 | ≤ 76.5
4 | CN(C)C[C@](C)(O)C(=O)N[C@H](C#N)Cc1ccc(-c2ccc3c(c2)C2(CN(C)C2)OC3=O)cc1 [Compound 388] | ≥ 66.7 | ≥ 93.9
5 | CN(C)C[C@](C)(O)C(=O)N[C@H](C#N)Cc1ccc(-c2ccc3oc(=O)n(CCN4CCOCC4)c3c2)cc1F [Compound 406] | ≥ 66.7 | 76.5 to 93.9
6 | CO[C@@H](CN(C)C)C(=O)N[C@H](C#N)Cc1ccc(-c2ccc3cnn(C4CCN(C)CC4)c3c2)cc1 [Compound 307] | 40 to 66.7 | ≤ 76.5
7 | CN(C)C[C@](C)(O)C(=O)N[C@H](C#N)Cc1cc2c(cc1F)-c1ccc(C#N)cc1CO2 [Compound 380] | ≤ 40 | ≤ 76.5
8 | CN(C)C[C@](C)(O)C(=O)NC(C#N)Cc1cc2c(cc1F)-c1cc3c(cc1CO2)oc(=O)n3C (stereo partly shown) [Compound 381] | 40 to 66.7 | 76.5 to 93.9
9 | CN(C)C[C@](C)(O)C(=O)N[C@H](C#N)Cc1ccc(-c2ccc3c(c2)C2(CC3)CCN(C)CC2)cc1 [Compound 384] | ≥ 66.7 | ≤ 76.5
10 | CN(C)C[C@H](O)C(=O)N[C@H](C#N)Cc1ccc(-c2ccc3cnn(C4CCN(C)CC4)c3c2)cc1 [Compound 349] | 40 to 66.7 | ≤ 76.5
11 | CN(C)C[C@](C)(O)C(=O)N[C@H](C#N)Cc1ccc(-c2ccc3cnn(C4CCN(C)CC4)c3c2)cc1 [Compound 391] | ≥ 66.7 | ≤ 76.5
12 | CN(C)C[C@H](O)C(=O)NC(C#N)Cc1cc2c(cc1F)-c1ccc3oc(=O)n(C)c3c1CO2 (stereo partly shown) [Compound 341] | ≤ 40 | ≤ 76.5
13 | CO[C@@H](CN(C)C)C(=O)N[C@H](C#N)Cc1ccc(-c2ccc3oc(=O)n(CCN4CCOCC4)c3c2)cc1 [Compound 309] | ≤ 40 | ≤ 76.5
14 | CO[C@@H](CN(C)C)C(=O)N[C@H](C#N)Cc1ccc(-c2ccc(S(=O)(=O)N3CCC3)cc2)cc1 [Compound 331] | ≤ 40 | ≤ 76.5
15 | CN(C)C[C@H](O)C(=O)N[C@H](C#N)Cc1ccc(-c2ccc3c(c2)C2(CCCN(C)C2)C(=O)N3C)cc1 (stereo partly shown) [Compound 343] | ≤ 40 | ≤ 76.5
16 | CO[C@@H](CN(C)C)C(=O)N[C@H](C#N)Cc1ccc(-c2ccc3cnn(C)c3c2)cc1 [Compound 328] | ≤ 40 | ≤ 76.5
17 | CO[C@@H](CN(C)C)C(=O)N[C@H](C#N)Cc1ccc(-c2ccc3oc(=O)n(C)c3c2)cc1F [Compound 324] | 40 to 66.7 | 76.5 to 93.9
18 | CN(C)C[C@H](O)C(=O)N[C@H](C#N)Cc1ccc(-c2ccc3oc(=O)n(C)c3c2)cc1F [Compound 366] | 40 to 66.7 | 76.5 to 93.9
19 | CN(C)C[C@](C)(O)C(=O)N[C@H](C#N)Cc1cc2c(cc1F)-c1ccc(F)cc1CO2 [Compound 420] | ≤ 40 | ≤ 76.5
20 | CN(C)C[C@](C)(O)C(=O)N[C@H](C#N)Cc1ccc(-c2ccc3nnn(C)c3c2)cc1F [Compound 417] | ≥ 66.7 | 76.5 to 93.9
21 | COCCN(C)CCn1c(=O)oc2ccc(-c3ccc(C[C@@H](C#N)NC(=O)[C@@](C)(O)CN(C)C)c(F)c3)cc21 [Compound 410] | ≥ 66.7 | ≥ 93.9

Row | Structure (SMILES) | inhibition at 0.01 µM (human DPP1 enzyme) [%] | inhibition at 0.005 µM (DPP1 in HL-60 cells) [%]
22 | CO[C@@H](CN(C)C)C(=O)N[C@H](C#N)Cc1ccc(-c2ccc3c(c2)C2(CN(C)C2)OC3=O)cc1F [Compound 317] | 40 to 66.7 | ≤ 76.5
23 | CCN1C(=O)Cc2ccc(-c3ccc(C[C@@H](C#N)NC(=O)[C@@H](O)CN(C)C)cc3)cc21 [Compound 347] | ≤ 40 | ≤ 76.5
24 | CCN1C(=O)Cc2ccc(-c3ccc(C[C@@H](C#N)NC(=O)[C@H](CN(C)C)OC)c(F)c3)cc21 [Compound 318] | 40 to 66.7 | 76.5 to 93.9
25 | CN(C)CCn1c(=O)oc2ccc(-c3ccc(C[C@@H](C#N)NC(=O)[C@@H](O)CN(C)C)cc3)cc21 [Compound 344] | 40 to 66.7 | ≤ 76.5
26 | CN(C)C[C@](C)(O)C(=O)NC(C#N)Cc1cc2c(cc1F)-c1cc(C#N)ccc1CO2 (stereo partly shown) [Compound 382] | ≤ 40 | ≤ 76.5
27 | CN(C)C[C@](C)(O)C(=O)N[C@H](C#N)Cc1ccc(-c2ccc3c(c2)C2(CCN(C4COC4)CC2)OC3)cc1 [Compound 392] | ≥ 66.7 | ≤ 76.5
28 | CN(C)C[C@](C)(O)C(=O)NC(C#N)Cc1cc2c(cc1F)-c1ccc3oc(=O)n(C)c3c1CO2 (stereo partly shown) [Compound 383] | ≤ 40 | ≤ 76.5
29 | CN(C)C[C@H](O)C(=O)N[C@H](C#N)Cc1ccc(-c2ccc3c(c2)C2(CCN(C)C2)OC3=O)cc1F (stereo partly shown) [Compound 361] | 40 to 66.7 | ≤ 76.5
30 | COCCN(C)CCn1c(=O)oc2ccc(-c3ccc(C[C@@H](C#N)NC(=O)[C@@H](O)CN(C)C)c(F)c3)cc21 [Compound 368] | ≥ 66.7 | ≤ 76.5
31 | CN(C)C[C@H](O)C(=O)N[C@H](C#N)Cc1ccc(-c2ccc3c(n2)CCCN3)cc1 [Compound 354] | ≤ 40 | ≤ 76.5
32 | CO[C@@H](CN(C)C)C(=O)N[C@H](C#N)Cc1ccc(-c2ccc3cnn(C4CCN(C)CC4)c3c2)cc1F [Compound 320] | ≥ 66.7 | ≤ 76.5
33 | CO[C@@H](CN(C)C)C(=O)N[C@H](C#N)Cc1ccc(-c2ccc3nnn(C)c3c2)cc1F [Compound 333] | 40 to 66.7 | 76.5 to 93.9
34 | CN(C)C[C@H](O)C(=O)N[C@H](C#N)Cc1ccc(-c2ccc3oc(=O)n(C)c3c2)cc1 [Compound 353] | 40 to 66.7 | 76.5 to 93.9
35 | CO[C@@H](CN(C)C)C(=O)N[C@H](C#N)Cc1ccc(-c2ccc3oc(=O)n(CCN4CCOCC4)c3c2)cc1F [Compound 322] | 40 to 66.7 | ≤ 76.5
36 | CN(C)C[C@](C)(O)C(=O)NC(C#N)Cc1cc2c(cc1F)-c1cc(C3COC3)c(F)cc1CO2 (stereo partly shown) [Compound 379] | ≤ 40 | ≤ 76.5
37 | CN(C)C[C@](C)(O)C(=O)N[C@H](C#N)Cc1ccc(-c2ccc(S(=O)(=O)N3CCC3)cc2)cc1 [Compound 415] | ≤ 40 | ≤ 76.5
38 | CN(C)C[C@H](O)C(=O)N[C@H](C#N)Cc1ccc(-c2ccc3c(c2)C2(CCN(C)C2)OC3=O)cc1 (stereo partly shown) [Compound 348] | 40 to 66.7 | ≤ 76.5
39 | CN(C)C[C@H](O)C(=O)N[C@H](C#N)Cc1ccc(-c2ccc3c(c2)C2(CN(C)C2)OC3=O)cc1 [Compound 346] | 40 to 66.7 | ≤ 76.5
40 | CN(C)C[C@H](O)C(=O)N[C@H](C#N)Cc1ccc(-c2ccc3oc(=O)n(CCN4CCOCC4)c3c2)cc1F [Compound 364] | 40 to 66.7 | ≤ 76.5
41 | CCN1C(=O)Cc2ccc(-c3ccc(C[C@@H](C#N)NC(=O)[C@@](C)(O)CN(C)C)cc3)cc21 [Compound 389] | 40 to 66.7 | 76.5 to 93.9

Reference: US20260008758A1, “LINEAR DIPEPTIDYL PEPTIDASE 1 INHIBITORS AND USES THEREOF” (Insmed Incorporated, priority 2024, published 2026)
